Assay results from patent US12180228B2 (priority 2019, dated 2024).

Tests used:
[1] = test system: A549 (alveolar adenocarcinoma); conditions: for IC50: read-out: Cytotoxicity IC50, A549, 72 h of compound treatment, Cell Titer-Glo (ATP levels), error is standard deviation of the mean, n ≥ 2
Description: (§1) Cells were grown in media supplemented with fetal bovine serum (FBS) and antibiotics (100 μg/mL penicillin and 100 U/mL streptomycin).
(§2) Cells were plated at 250 cells/well into duplicate assay plates in 50 μL media into 384-well white, opaque, tissue-culture treated plates and allowed to adhere overnight at 37° C./5% CO2. Compounds were solubilized in DMSO as 1000× stocks and […] was pin-transferred to cells (V&P pin tool mounted on Tecan Freedom Evo MCA96). Compounds were tested in 10-pt, 2-fold dilution with concentrations tested between 1 nM-20 μM for most compounds, except where indicated. DMSO (32 wells of 384-wells) was used as vehicle control. After 72 hours of incubation at 37° C./5% CO2, 10 μL Cell Titer-Glo (Promega) was added to each well and plates were incubated at room temperature for 10 minutes before the luminescence was read on a Tecan M1000 plate reader. Cell Titer-Glo measures ATP levels of cells as a surrogate for cell viability. All compound-treated wells was normalized to the DMSO control averages and expressed as a % of DMSO viability. IC50 values were determined from the dose curves using Spotfire (Perkin Elmer).

[2] = test system: DU-145 (prostate carcinoma); conditions: for IC50: read-out: Cytotoxicity IC50, DU-145, 72 h of compound treatment, Cell Titer-Glo (ATP levels), error is standard deviation of the mean, n ≥ 2
Description: as §1, §2

[3] = test system: HCT116 (colorectal carcinoma); conditions: read-out: Cytotoxicity IC50, HCT116; 72 h of compound treatment, Cell Titer-Glo (ATP levels); error is standard deviation of the mean, n ≥ 2
Description: as §1, §2

[4] = test system: HeLa (cervical carcinoma); conditions: for IC50: read-out: Cytotoxicity IC50, HeLa, 72 h of compound treatment, Cell Titer-Glo (ATP levels), error is standard deviation of the mean, n ≥ 2
Description: as §1, §2

[5] = test system: MCF7 (breast adenocarcinoma); conditions: read-out: Cytotoxicity IC50, MCF7; 72 h of compound treatment, Cell Titer-Glo (ATP levels); error is standard deviation of the mean, n ≥ 2
Description: as §1, §2

[6] = test system: five human cancer cell lines (HeLa, A549, MCF7, HCT116, DU-145); conditions: for cytotoxic activity relative to parent ETP (in words): same five cell lines
Description: Cells were grown in media supplemented with fetal bovine serum (FBS) and antibiotics (100 μg/mL penicillin and 100 U/mL streptomycin). Specifically, experiments were performed using the following cell lines and media compositions: HeLa (cervical adenocarcimona) and A549 (lung carcinoma) were grown in RPMI-1640+10% FBS; HCT-116 (colorectal carcinoma) was grown in DMEM+10% FBS; DU-145 (prostate carcinoma) and MCF7 (breast adenocarcinoma) were grown in EMEM+10% FBS. Cells were incubated at 37° C. in a 5% CO2, 95% humidity atmosphere.
as §2
To evaluate the model and functionalized ETP probes as anticancer agents, fifteen derivatives were tested in culture against a panel of five human cancer cell lines (Table 1).

[7] = D2O and CD3CN, addition of glutathione; minutes with base or days without
Description: The first study involved thiol-disulfide exchange of ETPs in organic solvents using a surrogate thiol, and then transitioned to more biologically informative aqueous conditions involving glutathione (Scheme 9).
To investigate this, aliquots of the reaction were diluted starting with epidisulfide (+)-42 (“from ETP”) in CDCl3 to analyze the composition versus an internal standard over a period of 100 h.

[8] = test system: Jurkat cell lines (acute T cell leukemia); assay: cells; type: cell-based; conditions: Homo sapiens, 72 hours, CellTiter-Glo
Description: (§3) Cells were grown in RPMI-1640+10% FBS+Pen/Strep and all are suspension cell lines. Each were plated at 250 cells per well in 50 μL of media in a 384 well plate and 50 nL of compounds was added via pin-tool (same as our usual procedure). Compounds were tested at 20 μM starting assay concentration in 20-pt, 2-fold dose in duplicate on the same assay plate. Cells were incubated with compound for 72 hours and viability was read out with CellTiter-Glo.

[9] = test system: K-562 cell lines (chronic myelogenous leukemia (CML)); assay: cells; type: cell-based; conditions: Homo sapiens, K562; 72 hours, CellTiter-Glo
Description: as §3

[10] = test system: Toledo cell lines (diffuse large cell lymphoma; non-Hodgkin's B cell lymphoma); assay: cells; type: cell-based; conditions: Homo sapiens, 72 hours, CellTiter-Glo
Description: as §3

[11] = Chemical stability of epidisulfides, in situ 1H NMR monitoring; type: physicochemical; conditions: triethylamine, 16 hours in deuteroacetonitrile
Description: In the absence of base, 98% of epidisulfide (+)-8 remained after 20 hours in deuterochloroform.
Monitoring in situ by ^1H NMR spectroscopy, 99% remaining starting material in the presence of triethylamine after 16 hours in deuteroacetonitrile was observed.

| SMILES | IC50 [1] | IC50 [2] | IC50 [3] | IC50 [4] | IC50 [5] | cytotoxic activity relative to parent ETP (in words) [6] | further results |
| --- | --- | --- | --- | --- | --- | --- | --- |
| COc1ccc([C@]23C[C@]4(SSC[C@H](NC(=O)CC[C@H](N)C(=O)O)C(=O)NCC(=O)O)C(=O)N(C)[C@@](C)(SSC[C@H](NC(=O)CC[C@H](N)C(=O)O)C(=O)NCC(=O)O)C(=O)N4[C@H]2N(S(=O)(=O)c2ccccc2)c2ccccc23)cc1 [Compound 46, Bis(L-glutathione)disulfide] | 910 ± 324 nM | 580 ± 216 nM | 1100 ± 540 nM | 508 ± 75 nM | 500 ± 152 nM | significantly less active | reversion of bisdisulfide to ETP (+)-42 (in words) [7]: quantitative reversion |
| CN1C(=O)[C@@]23C[C@]4(c5ccc(OCCCN=[N+]=[N-])cc5)c5ccccc5N(S(=O)(=O)c5ccccc5)[C@@H]4N2C(=O)[C@]1(C)SS3 [(+)-9d, Epidithiodiketopiperazine Azide] |  |  |  |  |  |  | fold decrease in activity compared to model ETP (+)-42, A549 [1]: 2.7 fold; fold decrease in activity compared to model ETP (+)-42, DU-145 [2]: 8.6 fold; fold decrease in activity compared to model ETP (+)-42, HeLa [4]: 4.3 fold; IC50 [8]: 419 nM; IC50 [9]: 1280 nM; IC50 [10]: 1810 nM |
| COc1ccc([C@]23C[C@]4(SSCc5ccc(F)cc5)C(=O)N(C)[C@@](C)(SSCc5ccc(F)cc5)C(=O)N4[C@H]2N(S(=O)(=O)c2ccccc2)c2ccccc23)cc1 [(+)-45b] |  |  |  |  |  | approximately the same activities |  |
| COc1ccc([C@]23C[C@@]45SS[C@@](C)(C(=O)N4[C@H]2N(S(=O)(=O)c2ccccc2)c2ccccc23)N(C)C5=O)cc1 [(+)-42, Epidithiodiketopiperazine] | 92 ± 87 nM | 36 ± 43 nM | 374 ± 83 nM | 32 ± 37 nM | 81 ± 64 nM |  | IC50 ([6]; read-out: activity (IC50 range) against the five cell lines, range over HeLa, A549, MCF7, HCT116, DU-145): 32 to 374 nM; remaining starting material [11]: 99% |
| COc1ccc([C@]23C[C@]4(SSCc5ccc(F)cc5)C(=O)N(C)[C@@H](SSCc5ccc(F)cc5)C(=O)N4[C@H]2N(S(=O)(=O)c2ccccc2)c2ccccc23)cc1 [(−)-45a] |  |  |  |  |  | approximately the same activities |  |
